Tests used:
HiBit-KRAS^G12C [1] = biological target: T1, HiBit-KRAS^G12C (Homo sapiens, UniProt P01116, G12C); assay: HiBit degradation assay in MiaPaCa-2 HiBit-KRas^G12C cells; format: cell-based; settings: 24 hours; for DC50: read-out: KRas^G12C-HiBiT (MiaPaCa; 0.5% DMSO) IC50; for Dmax: MIA PaCa-2, MiaPaCa-2 HiBit-KRas^G12C cells
Summary of the method: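 MiaPaCa-2 cells with CRISPR N-terminal HiBit knock-in on one endogenous KRAS^G12C allele, treated 24 hours at 37° C with compound titrated 10 μM to 20 nM (0.1% or 0.5% DMSO). Lytic HiBit luminescence normalized to DMSO, 4-parameter fit giving DC50 and Dmax; points cytotoxic to […] cells by alamar blue excluded.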

HiBit-KRAS^G12C [2] = biological target: T1, HiBit-KRAS^G12C; assay: HiBit degradation assay in SW1573 HiBit-KRas^G12C cells; format: cell-based; set-up: expressed in transfected cells; host or cells: SW1573 (clone E6), modified pcDNA3.1 vector, TK promoter; settings: 24 hours; for Dmax: SW1573, SW1573 HiBit-KRas^G12C
Summary of the method: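 SW1573 cells stably expressing N-terminally HiBit-tagged KRAS G12C, under the TK promoter, were treated 24 h at 37 °C with 10 μM to 20 nM compound in 0.1% or 0.5% DMSO. Residual HiBit luminescence normalised to DMSO and fitted with a 4-parameter model for DC50 and Dmax. Points with ≥50% viability loss (alamar blue) excluded.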

[3] = MiaPaCa-2 HiBit-KRas^G12C cells, 0.5% DMSO, maximum degradation
[4] = MiaPaCa-2 HiBit-KRas^G12C cells, 0.5% DMSO
[5] = SW1573 HiBit-KRas^G12C, 0.5% DMSO
[6] = read-out: KRas^G12C-HiBiT (SW1573; 0.5% DMSO) IC50***, SW1573 HiBit-KRas^G12C, 0.5% DMSO
[7] = 0.5% DMSO, maximum degradation, read-out: KRas^G12C-HiBiT (MiaPaCa; 0.5% DMSO) DMax
[8] = 0.5% DMSO, read-out: KRas^G12C-HiBiT (SW1573; 0.5% DMSO) Dmax**
[9] = 0.1% DMSO, maximum degradation, read-out: KRas^G12C-HiBiT (MiaPaCa; 0.1% DMSO) DMax
[10] = 0.1% DMSO, read-out: KRas^G12C-HiBit (SW1573; 0.1% DMSO) Dmax**
[11] = SW1573 HiBit-KRas^G12C, 0.1% DMSO, read-out: KRas^G12C-HIBit (SW1573; 0.1% DMSO) DC50*

T1 sequence (P01116 1-186 isoform P01116-2 G12C limits assumed): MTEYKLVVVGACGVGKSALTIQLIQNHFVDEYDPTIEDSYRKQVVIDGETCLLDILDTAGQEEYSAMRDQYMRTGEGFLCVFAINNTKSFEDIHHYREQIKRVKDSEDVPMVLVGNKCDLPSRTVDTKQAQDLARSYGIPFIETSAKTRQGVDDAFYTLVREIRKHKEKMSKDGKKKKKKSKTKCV

Row | SMILES | KRas^G12C-HiBiT (MiaPaCa; 0.5% DMSO) DMax (HiBit-KRAS^G12C [1]; [3]) | DC50 (HiBit-KRAS^G12C [1]; [4]) [nM] | DC50 (HiBit-KRAS^G12C [2]; [6]) [nM] | Dmax (HiBit-KRAS^G12C [1]; [7]) [%] | Dmax (HiBit-KRAS^G12C [2]; [8]) [%] | Dmax (HiBit-KRAS^G12C [1]; [9]) [%] | Dmax (HiBit-KRAS^G12C [2]; [10]) [%] | DC50 (HiBit-KRAS^G12C [2]; [11]) [nM] | further results
1 | C=CC(=O)N1CCN(c2nc(OCCN3CCC(COC4(C(=O)N[C@H](C(=O)N5C[C@H](O)C[C@H]5C(=O)N[C@@H](C)c5ccc(-c6scnc6C)cc5)C(C)(C)C)CC4)CC3)nc3c(F)c(-c4cc(O)cc5ccccc45)c(Cl)cc23)C[C@@H]1CC#N [Compound 96, (2S,4R)-1-[(2S)-2-{[1-({1-[2-({6-chloro-4-[(3S)-3-(cyanomethyl)-4-(prop-2-enoyl)piperazin-1-yl]-8-fluoro-7-(3-hydroxynaphthalen-1-yl)quinazolin-2-yl}oxy)ethyl]piperidin-4-yl}methoxy)cyclopropyl] formamido}-3,3-dimethylbutanoyl]-4-hydroxy-N-[(1S)-1-[4-(4-methyl-1,3-thiazol-5-yl)phenyl]ethyl]pyrrolidine-2-carboxamide] |  | 100 to 1000 | < 100 | > 70 | > 70 |  |  |  | 
2 | C=CC(=O)N1CCN(c2nc(O[C@@H](C)CN3CCC(OCCOCC(=O)N[C@H](C(=O)N4C[C@H](O)C[C@H]4C(=O)N[C@@H](C)c4ccc(-c5scnc5C)cc4)C(C)(C)C)CC3)nc3c(F)c(-c4cc(O)cc5ccccc45)c(Cl)cc23)CC1 [Compound 67, (2S,4R)-1-[(2S)-2-{2-[2-({1-[(2S)-2-{[6-chloro-8-fluoro-7-(3-hydroxynaphthalen-1-yl)-4-[4-(prop-2-enoyl)piperazin-1-yl]quinazolin-2-yl]oxy}propyl]piperidin-4-yl}oxy)ethoxy]acetamido}-3,3-dimethylbutanoyl]-4-hydroxy-N-[(1S)-1-[4-(4-methyl-1,3-thiazol-5-yl)phenyl]ethyl]pyrrolidine-2-carboxamide] |  |  |  | 35 to 70 | 35 to 70 | 35 to 70 | 35 to 70 | 100 to 1000 | 
3 | C=CC(=O)N1CCN(c2nc(OCCN3CCC(OCCOc4cc([C@H](C(=O)N5C[C@H](O)C[C@H]5C(=O)N[C@@H](C)c5ccc(-c6scnc6C)cc5)C(C)C)on4)CC3)nc3c(F)c(-c4cc(O)cc5ccccc45)c(Cl)cc23)C[C@@H]1CC#N (atropisomer, axis not shown) [Compound 3, (2S,4R)-1-((R)-2-(3-(2-((1-(2-(((S)-4-((S)-4-acryloyl-3-(cyanomethyl)piperazin-1-yl)-6-chloro-8-fluoro-7-(3-hydroxynaphthalen-1-yl)quinazolin-2-yl)oxy)ethyl)piperidin-4-yl)oxy)ethoxy)isoxazol-5-yl)-3-methylbutanoyl)-4-hydroxy-N-((S)-1-(4-(4-methylthiazol-5-yl)phenyl)ethyl)pyrrolidine-2-carboxamide] | A (A ≥ 70) |  |  |  |  |  |  | < 100 | KRas^G12C-HiBiT (MiaPaCa; 0.1% DMSO) DMax (HiBit-KRAS^G12C [1]; MiaPaCa-2 HiBit-KRas^G12C cells, 0.1% DMSO, maximum degradation): A (A ≥ 70); KRas^G12C-HiBit (SW1573; 0.1% DMSO) Dmax** (HiBit-KRAS^G12C [2]; SW1573 HiBit-KRas^G12C, 0.1% DMSO): A (A ≥ 70)
4 | C=CC(=O)N1CCN(c2nc(OCCN3CCC(OCCOCC(=O)N[C@H](C(=O)N4C[C@H](O)C[C@H]4C(=O)N[C@@H](C)c4ccc(-c5scnc5C)cc4)C(C)(C)C)CC3)nc3c(F)c(-c4cc(O)cc5ccccc45)c(Cl)cc23)CC1 [Compound 66, (2S,4R)-1-[(2S)-2-[2-(2-{[1-(2-{[6-chloro-8-fluoro-7-(3-hydroxynaphthalen-1-yl)-4-[4-(prop-2-enoyl)piperazin-1-yl]quinazolin-2-yl]oxy}ethyl)piperidin-4-yl]oxy}ethoxy)acetamido]-3,3-dimethylbutanoyl]-4-hydroxy-N-[(1S)-1-[4-(4-methyl-1,3-thiazol-5-yl)phenyl]ethyl]pyrrolidine-2-carboxamide] |  |  |  | 35 to 70 | 35 to 70 | < 35 | 35 to 70 | 100 to 1000 | 
5 | C=CC(=O)N1CCN(c2nc(OCCN3CCC(OCCOc4cc([C@H](C(=O)N5C[C@H](O)C[C@H]5C(=O)N[C@@H](C)c5ccc(-c6scnc6C)cc5)C(C)C)on4)CC3)nc3c(F)c(-c4cc(O)cc5ccccc45)c(Cl)cc23)C[C@@H]1CC#N (single isomer, unassigned) [Compound 21] |  |  |  | > 70 | > 70 | > 70 | > 70 | 100 to 1000 | 

The next lines start with results.

Row | KRas^G12C-HiBiT (MiaPaCa; 0.5% DMSO) DMax (HiBit-KRAS^G12C [1]; [3]) | DC50 (HiBit-KRAS^G12C [1]; [4]) [nM] | DC50 (HiBit-KRAS^G12C [2]; [6]) [nM] | Dmax (HiBit-KRAS^G12C [1]; [7]) [%] | Dmax (HiBit-KRAS^G12C [2]; [8]) [%] | Dmax (HiBit-KRAS^G12C [1]; [9]) [%] | Dmax (HiBit-KRAS^G12C [2]; [10]) [%] | SMILES | DC50 (HiBit-KRAS^G12C [2]; [11]) [nM] | further results
6 | A (A ≥ 70) | 100 to 1000 | < 100 |  |  |  |  | C=CC(=O)N1CCN(c2nc(OCCN3CCC4(CC3)CN(c3cc([C@H](C(=O)N5C[C@H](O)C[C@H]5C(=O)N[C@@H](C)c5ccc(-c6scnc6C)cc5)C(C)C)on3)C4)nc3c(F)c(-c4cc(O)cc5ccccc45)c(Cl)cc23)C[C@@H]1CC#N [Compound 139, (2S,4R)-1-[(2R)-2-(3-{7-[2-({6-chloro-4-[(3S)-3-(cyanomethyl)-4-(prop-2-enoyl)piperazin-1-yl]-8-fluoro-7-(3-hydroxynaphthalen-1-yl)quinazolin-2-yl}oxy)ethyl]-2,7-diazaspiro[3.5]nonan-2-yl}-1,2-oxazol-5-yl)-3-methylbutanoyl]-4-hydroxy-N-[(1S)-1-[4-(4-methyl-1,3-thiazol-5-yl)phenyl]ethyl]pyrrolidine-2-carboxamide] |  | KRas^G12C-HiBiT (SW1573; 0.5% DMSO) Dmax** (HiBit-KRAS^G12C [2]; [5]): A (A ≥ 70)
7 |  | > 1000 | > 1000 |  |  |  |  | C=CC(=O)N1CCN(c2nc(OCCN3CCC4(CC3)CN(c3cc([C@@H](C(=O)N5C[C@H](O)C[C@H]5C(=O)N[C@@H](C)c5ccc(-c6ccnn6C)cc5)C(C)C)on3)C4)nc3c(F)c(-c4cc(O)cc5ccccc45)c(Cl)cc23)C[C@@H]1CC#N (atropisomer, axis not shown) [Compound 101, (2S,4R)-1-[(2S)-2-(3-{7-[2-({6-chloro-4-[(3S)-3-(cyanomethyl)-4-(prop-2-enoyl)piperazin-1-yl]-8-fluoro-7-(3-hydroxynaphthalen-1-yl)quinazolin-2-yl}oxy)ethyl]-2,7-diazaspiro[3.5]nonan-2-yl}-1,2-oxazol-5-yl)-3-methylbutanoyl]-4-hydroxy-N-[(1S)-1-[4-(1-methyl-1H-pyrazol-5-yl)phenyl]ethyl]pyrrolidine-2-carboxamide] |  | 
8 |  | 100 to 1000 | > 1000 | < 35 |  |  |  | C=CC(=O)N1CCN(c2nc(OCCN3CCC(COc4cc([C@H](C(=O)N5C[C@H](O)C[C@H]5C(=O)N[C@@H](C)c5ccc(C#N)cc5)C(C)C)on4)CC3)nc3c(F)c(-c4cc(O)cc5ccccc45)c(Cl)cc23)C[C@@H]1CC#N [Compound 160, (2S,4R)-1-[(2R)-2-[3-({1-[2-({6-chloro-4-[(3S)-3-(cyanomethyl)-4-(prop-2-enoyl)piperazin-1-yl]-8-fluoro-7-(3-hydroxynaphthalen-1-yl)quinazolin-2-yl}oxy)ethyl]piperidin-4-yl}methoxy)-1,2-oxazol-5-yl]-3-methylbutanoyl]-N-[(1S)-1-(4-cyanophenyl)ethyl]-4-hydroxypyrrolidine-2-carboxamide] |  | 
9 | C (C ≤ 35) |  |  |  |  |  |  | C=CC(=O)N1CCN(c2nc(OCCN3CCC(COCC(=O)N[C@H](C(=O)N4C[C@H](O)C[C@H]4C(=O)N[C@@H](C)c4ccc(-c5scnc5C)cc4)C(C)(C)C)CC3)nc3c(F)c(-c4cc(O)cc5ccccc45)c(Cl)cc23)C[C@@H]1CC#N (atropisomer, axis not shown) [Compound 110, (2S,4R)-1-[(2S)-2-[2-({1-[2-({6-chloro-4-[(3S)-3-(cyanomethyl)-4-(prop-2-enoyl)piperazin-1-yl]-8-fluoro-7-(3-hydroxynaphthalen-1-yl)quinazolin-2-yl}oxy)ethyl]piperidin-4-yl}methoxy)acetamido]-3,3-dimethylbutanoyl]-4-hydroxy-N-[(1S)-1-[4-(4-methyl-1,3-thiazol-5-yl)phenyl]ethyl]pyrrolidine-2-carboxamide] |  | KRas^G12C-HiBiT (SW1573; 0.5% DMSO) Dmax** (HiBit-KRAS^G12C [2]; [5]): C (C ≤ 35)
10 |  | > 1000 | 100 to 1000 | 35 to 70 | 35 to 70 |  |  | C=CC(=O)N1CCN(c2nc(OCCN3CC[C@H](COCC(=O)N[C@H](C(=O)N4C[C@H](O)C[C@H]4C(=O)N[C@@H](C)c4ccc(-c5scnc5C)cc4)C(C)(C)C)C3)nc3c(F)c(-c4cc(O)cc5ccccc45)c(Cl)cc23)C[C@@H]1CC#N [Compound 142, (2S,4R)-1-[(2S)-2-(2-{[(3S)-1-[2-({6-chloro-4-[(3S)-3-(cyanomethyl)-4-(prop-2-enoyl)piperazin-1-yl]-8-fluoro-7-(3-hydroxynaphthalen-1-yl)quinazolin-2-yl}oxy)ethyl]pyrrolidin-3-yl]methoxy}acetamido)-3,3-dimethylbutanoyl]-4-hydroxy-N-[(1S)-1-[4-(4-methyl-1,3-thiazol-5-yl)phenyl]ethyl]pyrrolidine-2-carboxamide] |  | 

Source: patent publication US20220370416A1, “COMPOUNDS AND METHODS FOR TARGETED DEGRADATION OF KRAS” (Arvinas Operations, Inc., priority 2020, published 2022)
